Test results from PubChem BioAssay AID1259407 (Chemical Carcinogenesis Research Information System (CCRIS), 2018).
Activity calls are given as the source filed them. No rule for the calls is given here.

System: CCRIS mutagenicity, Ames/micronucleus/aberration tests
Test: CCRIS mutagenicity studies

Measured: mutagenic call

ClCc1ccccc1
inactive: Test System: AMES SALMONELLA TYPHIMURIUM, Strain/Indicator: TA97, Metabolic Activation: HAMSTER, LIVER, S-9, AROCLOR 1254 (10%), Method: PREINCUBATION inactive; negative | Test System: AMES SALMONELLA TYPHIMURIUM, Strain/Indicator: TA97, Metabolic Activation: HAMSTER, LIVER, S-9, AROCLOR 1254 (30%), Method: PREINCUBATION inactive; negative | Test System: AMES SALMONELLA TYPHIMURIUM, Strain/Indicator: TA97, Metabolic Activation: NONE, Method: PREINCUBATION inactive; negative | Test System: AMES SALMONELLA TYPHIMURIUM, Strain/Indicator: TA97, Metabolic Activation: RAT, LIVER, S-9, AROCLOR 1254 (10%), Method: PREINCUBATION inactive; negative | Test System: AMES SALMONELLA TYPHIMURIUM, Strain/Indicator: TA97, Metabolic Activation: RAT, LIVER, S-9, AROCLOR 1254 (30%), Method: PREINCUBATION inactive; negative | Test System: AMES SALMONELLA TYPHIMURIUM, Strain/Indicator: TA98, Metabolic Activation: HAMSTER, LIVER, S-9, AROCLOR 1254 (10%), Method: PREINCUBATION inactive; negative | Test System: AMES SALMONELLA TYPHIMURIUM, Strain/Indicator: TA98, Metabolic Activation: HAMSTER, LIVER, S-9, AROCLOR 1254 (30%), Method: PREINCUBATION inactive; negative | Test System: AMES SALMONELLA TYPHIMURIUM, Strain/Indicator: TA98, Metabolic Activation: NONE, Method: FLUCTUATION (MICROTITER) inactive; negative | Test System: AMES SALMONELLA TYPHIMURIUM, Strain/Indicator: TA98, Metabolic Activation: NONE, Method: PREINCUBATION inactive; negative | Test System: AMES SALMONELLA TYPHIMURIUM, Strain/Indicator: TA98, Metabolic Activation: RAT LIVER S-9, AROCLOR 1254, Method: FLUCTUATION (MICROTITER) inactive; negative | Test System: AMES SALMONELLA TYPHIMURIUM, Strain/Indicator: TA98, Metabolic Activation: RAT LIVER S-9, PHENOBARBITAL AND BETA-NAPHTHOFLAVONE, Method: PREINCUBATION inactive; negative | Test System: AMES SALMONELLA TYPHIMURIUM, Strain/Indicator: TA98, Metabolic Activation: RAT, LIVER, S-9, AROCLOR 1254 (10%), Method: PREINCUBATION inactive; negative | Test System: AMES SALMONELLA TYPHIMURIUM, Strain/Indicator: TA98, Metabolic Activation: RAT, LIVER, S-9, AROCLOR 1254 (30%), Method: PREINCUBATION inactive; negative | Test System: AMES SALMONELLA TYPHIMURIUM, Strain/Indicator: TA100, Metabolic Activation: HAMSTER, LIVER, S-9, AROCLOR 1254 (10 OR 30%), Method: PREINCUBATION inactive; negative | Test System: AMES SALMONELLA TYPHIMURIUM, Strain/Indicator: TA100, Metabolic Activation: NONE, Method: STANDARD PLATE inactive; negative | Test System: AMES SALMONELLA TYPHIMURIUM, Strain/Indicator: TA100, Metabolic Activation: RAT, LIVER, S-9, AROCLOR 1254 (10%), Method: PREINCUBATION inactive; negative | Test System: AMES SALMONELLA TYPHIMURIUM, Strain/Indicator: TA100, Metabolic Activation: RAT, LIVER, S-9, AROCLOR 1254 (30%), Method: PREINCUBATION inactive; negative | Test System: AMES SALMONELLA TYPHIMURIUM, Strain/Indicator: TA1535, Metabolic Activation: HAMSTER, LIVER, S-9, AROCLOR 1254 (10%), Method: PREINCUBATION inactive; negative | Test System: AMES SALMONELLA TYPHIMURIUM, Strain/Indicator: TA1535, Metabolic Activation: HAMSTER, LIVER, S-9, AROCLOR 1254 (30%), Method: PREINCUBATION inactive; negative | Test System: AMES SALMONELLA TYPHIMURIUM, Strain/Indicator: TA1535, Metabolic Activation: NONE, Method: PREINCUBATION inactive; negative | Test System: AMES SALMONELLA TYPHIMURIUM, Strain/Indicator: TA1535, Metabolic Activation: RAT LIVER S-9, PHENOBARBITAL AND BETA-NAPHTHOFLAVONE, Method: PREINCUBATION inactive; negative | Test System: AMES SALMONELLA TYPHIMURIUM, Strain/Indicator: TA1535, Metabolic Activation: RAT, LIVER, S-9, AROCLOR 1254 (10%), Method: PREINCUBATION inactive; negative | Test System: AMES SALMONELLA TYPHIMURIUM, Strain/Indicator: TA1535, Metabolic Activation: RAT, LIVER, S-9, AROCLOR 1254 (30%), Method: PREINCUBATION inactive; negative | Test System: AMES SALMONELLA TYPHIMURIUM, Strain/Indicator: TA1537, Metabolic Activation: HAMSTER, LIVER, S-9, AROCLOR 1254 (10%), Method: PREINCUBATION inactive; negative | Test System: AMES SALMONELLA TYPHIMURIUM, Strain/Indicator: TA1537, Metabolic Activation: NONE, Method: FLUCTUATION (MICROTITER) inactive; negative | Test System: AMES SALMONELLA TYPHIMURIUM, Strain/Indicator: TA1537, Metabolic Activation: NONE, Method: PREINCUBATION inactive; negative | Test System: AMES SALMONELLA TYPHIMURIUM, Strain/Indicator: TA1537, Metabolic Activation: RAT LIVER S-9, AROCLOR 1254, Method: FLUCTUATION (MICROTITER) inactive; negative | Test System: AMES SALMONELLA TYPHIMURIUM, Strain/Indicator: TA1537, Metabolic Activation: RAT LIVER S-9, PHENOBARBITAL AND BETA-NAPHTHOFLAVONE, Method: PREINCUBATION inactive; negative | Test System: AMES SALMONELLA TYPHIMURIUM, Strain/Indicator: TA1537, Metabolic Activation: RAT, LIVER, S-9, AROCLOR 1254 (10%), Method: PREINCUBATION inactive; negative | Test System: AMES SALMONELLA TYPHIMURIUM, Strain/Indicator: TA7001, Metabolic Activation: NONE, Method: FLUCTUATION (MICROTITER) inactive; negative | Test System: AMES SALMONELLA TYPHIMURIUM, Strain/Indicator: TA7001, Metabolic Activation: RAT LIVER S-9, AROCLOR 1254, Method: FLUCTUATION (MICROTITER) inactive; negative | Test System: AMES SALMONELLA TYPHIMURIUM, Strain/Indicator: TA7002, Metabolic Activation: NONE, Method: FLUCTUATION (MICROTITER) inactive; negative | Test System: AMES SALMONELLA TYPHIMURIUM, Strain/Indicator: TA7002, Metabolic Activation: RAT LIVER S-9, AROCLOR 1254, Method: FLUCTUATION (MICROTITER) inactive; negative | Test System: AMES SALMONELLA TYPHIMURIUM, Strain/Indicator: TA7003, Metabolic Activation: NONE, Method: FLUCTUATION (MICROTITER) inactive; negative | Test System: AMES SALMONELLA TYPHIMURIUM, Strain/Indicator: TA7003, Metabolic Activation: RAT LIVER S-9, AROCLOR 1254, Method: FLUCTUATION (MICROTITER) inactive; negative | Test System: AMES SALMONELLA TYPHIMURIUM, Strain/Indicator: TA7004, Metabolic Activation: RAT LIVER S-9, AROCLOR 1254, Method: FLUCTUATION (MICROTITER) inactive; negative | Test System: AMES SALMONELLA TYPHIMURIUM, Strain/Indicator: TA7005, Metabolic Activation: RAT LIVER S-9, AROCLOR 1254, Method: FLUCTUATION (MICROTITER) inactive; negative | Test System: AMES SALMONELLA TYPHIMURIUM, Strain/Indicator: TA7006, Metabolic Activation: NONE, Method: FLUCTUATION (MICROTITER) inactive; negative | Test System: AMES SALMONELLA TYPHIMURIUM, Strain/Indicator: TA7006, Metabolic Activation: RAT LIVER S-9, AROCLOR 1254, Method: FLUCTUATION (MICROTITER) inactive; negative | Test System: Ames Salmonella typhimurium, Strain/Indicator: TA98, Metabolic Activation: None, Method: Direct plate-incorporation inactive; negative (no data given in original article) | Test System: Ames Salmonella typhimurium, Strain/Indicator: TA98, Metabolic Activation: None, Method: Direct plate-incorporation using closed container inactive; negative, moderate toxicity at highest dose. | Test System: Ames Salmonella typhimurium, Strain/Indicator: TA98, Metabolic Activation: None, Method: Vaporization-diffusion inactive; negative | Test System: Ames Salmonella typhimurium, Strain/Indicator: TA98, Metabolic Activation: Rat, liver, S-9, Aroclor 1254, Method: Direct plate-incorporation inactive; negative (no data given in original article) | Test System: Ames Salmonella typhimurium, Strain/Indicator: TA98, Metabolic Activation: Rat, liver, S-9, Aroclor 1254, Method: Direct plate-incorporation using closed container inactive; negative, moderate toxicity at highest dose. | Test System: Ames Salmonella typhimurium, Strain/Indicator: TA98, Metabolic Activation: Rat, liver, S-9, Aroclor 1254, Method: Preincubation inactive; negative, strain also tested without s-9, but moderate to high toxicity was obse | Test System: Ames Salmonella typhimurium, Strain/Indicator: TA98, Metabolic Activation: Rat, liver, S-9, Aroclor 1254, Method: Vaporization-diffusion inactive; negative | Test System: Ames Salmonella typhimurium, Strain/Indicator: TA100, Metabolic Activation: None, Method: Direct plate-incorporation inactive; negative
active: End Point: IN VITRO CHROMOSOMAL ABERRATIONS, Test System: CHL CELLS, Metabolic Activation: RAT, LIVER, S-9, SODIUM PHENOBARBITAL AND 5,6-BENZOFLAVONE active; positive (structural changes) | End Point: IN VITRO MICRONUCLEUS, Test System: CHL/IU CELLS, Metabolic Activation: NONE active; positive | Test System: AMES SALMONELLA TYPHIMURIUM, Strain/Indicator: TA100, Method: STANDARD PLATE active; positive | Test System: AMES SALMONELLA TYPHIMURIUM, Strain/Indicator: TA7004, Metabolic Activation: NONE, Method: FLUCTUATION (MICROTITER) active; positive | Test System: AMES SALMONELLA TYPHIMURIUM, Strain/Indicator: TA7005, Metabolic Activation: NONE, Method: FLUCTUATION (MICROTITER) active; positive | Test System: Ames Salmonella typhimurium, Strain/Indicator: TA100, Metabolic Activation: None, Method: Vaporization-diffusion active; positive at all doses, effect of duration of exposure evident, with only 3-hr ex | Test System: Ames Salmonella typhimurium, Strain/Indicator: TA100, Metabolic Activation: Rat, liver, S-9, Aroclor 1254, Method: Direct plate-incorporation active; positive (weak but dose related response; in previous test, higher dose of 2,500 | Test System: Ames Salmonella typhimurium, Strain/Indicator: TA100, Metabolic Activation: Rat, liver, S-9, Aroclor 1254, Method: Preincubation active; positive, weak, dose-related increase in number of revertants noted. strain also | Test System: Ames Salmonella typhimurium, Strain/Indicator: TA100, Metabolic Activation: Rat, liver, S-9, Aroclor 1254, Method: Vaporization-diffusion active; positive at all doses, effect of duration of exposure evident, with only 3-hr ex | Test System: Ames Salmonella typhimurium, Strain/Sex: TA100, Metabolic Activation: None, Method: Direct plate-incorporation using closed container active; positive, moderate toxicity at highest dose. | Test System: Ames Salmonella typhimurium, Strain/Sex: TA100, Metabolic Activation: Rat, liver, S-9, Aroclor 1254, Method: Direct plate-incorporation using closed container active; positive, moderate toxicity at highest dose. | Test System: UDS HUMAN FIBROBLASTS, Strain/Indicator: THY INCORP (NON-S-PHASE), Metabolic Activation: NONE, Method: LIQUID SCINTILLATION COUNTING active; positive
